Among the data in the supplement of paper PMC10307832 are relative viability values, retold here.

One experiment deals with NCI-H2170. As to the kind of experiment: relative viability (nuclei count vs DMSO), 5 days (fraction); higher = more cells survive. The settings on record: first compound 0.08 µM. The procedure, abridged: (§1)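 Cells from lung cancer lines were seeded into 1536-well plates and, one day later, dosed by pin tool. Treatments were either a single drug or a fixed dose of an anchor drug with five library-drug doses (not always all listed) in √10 steps. After 5 days, nuclei were stained in a one-step fixation (final 0.05% Triton X-100, 1% formaldehyde, 1 ug/ml Hoechst) and counted on 4× images, and relative viability is the treated-to-vehicle nuclei ratio, as the median of duplicate plates.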
Compound `CCCCCCCCCCCC1=C(O)C(=O)C=C(O)C1=O` [Embelin] + O=C(CCCCCCC(=O)Nc1ccccc1)NO [Vorinostat] (partner 1 µM) showed a relative viability of 0.773.
Still for that read-out and setting: with `CCCCCCCCCCCC1=C(O)C(=O)C=C(O)C1=O` [Embelin] + O=C(c1cc(Cc2n[nH]c(=O)c3ccccc23)ccc1F)N1CCN(C(=O)C2CC2)CC1 [Olaparib] (partner 8 µM) the figure was 0.569; with `CCCCCCCCCCCC1=C(O)C(=O)C=C(O)C1=O` [Embelin] + Cc1cc(Nc2cc(N3CCN(C)CC3)nc(Sc3ccc(NC(=O)C4CC4)cc3)n2)n[nH]1 [Tozasertib] (partner 0.1 µM), 0.798; with `CCCCCCCCCCCC1=C(O)C(=O)C=C(O)C1=O` [Embelin] + Nc1ncn([C@H]2C[C@H](O)[C@@H](CO)O2)c(=O)n1 [Decitabine] (partner 2 µM), 0.514.
Same read-out and setting: for `CCCCCCCCCCCC1=C(O)C(=O)C=C(O)C1=O` [Embelin] + CC(=O)c1c(C)c2cnc(Nc3ccc(N4CCNCC4)cn3)nc2n(C2CCCC2)c1=O [Palbociclib] (partner 0.5 µM) the value was 0.407.

The experiment is the same for the next values; noted with them: first compound 0.8 µM.
Regarding `CCCCCCCCCCCC1=C(O)C(=O)C=C(O)C1=O` [Embelin] + O=C(CCCCCCC(=O)Nc1ccccc1)NO [Vorinostat] (partner 1 µM), the relative viability is 0.784.
The compound `CCCCCCCCCCCC1=C(O)C(=O)C=C(O)C1=O` [Embelin] + O=C(c1cc(Cc2n[nH]c(=O)c3ccccc23)ccc1F)N1CCN(C(=O)C2CC2)CC1 [Olaparib] (partner 8 µM) registered a relative viability of 0.554.
For the compound `CCCCCCCCCCCC1=C(O)C(=O)C=C(O)C1=O` [Embelin] + Cc1cc(Nc2cc(N3CCN(C)CC3)nc(Sc3ccc(NC(=O)C4CC4)cc3)n2)n[nH]1 [Tozasertib] (partner 0.1 µM), the relative viability came to 0.761.
Still for that read-out and setting: for `CCCCCCCCCCCC1=C(O)C(=O)C=C(O)C1=O` [Embelin] + Nc1ncn([C@H]2C[C@H](O)[C@@H](CO)O2)c(=O)n1 [Decitabine] (partner 2 µM) the value was 0.446; for `CCCCCCCCCCCC1=C(O)C(=O)C=C(O)C1=O` [Embelin] + CC(=O)c1c(C)c2cnc(Nc3ccc(N4CCNCC4)cn3)nc2n(C2CCCC2)c1=O [Palbociclib] (partner 0.5 µM), 0.418.

The experiment is the same for the next values; noted with them: first compound 2.53 µM.
Compound `CCCCCCCCCCCC1=C(O)C(=O)C=C(O)C1=O` [Embelin] + O=C(CCCCCCC(=O)Nc1ccccc1)NO [Vorinostat] (partner 1 µM) displayed a relative viability of 0.922.
Still for that read-out and setting: for `CCCCCCCCCCCC1=C(O)C(=O)C=C(O)C1=O` [Embelin] + O=C(c1cc(Cc2n[nH]c(=O)c3ccccc23)ccc1F)N1CCN(C(=O)C2CC2)CC1 [Olaparib] (partner 8 µM) the value was 0.586; for `CCCCCCCCCCCC1=C(O)C(=O)C=C(O)C1=O` [Embelin] + Cc1cc(Nc2cc(N3CCN(C)CC3)nc(Sc3ccc(NC(=O)C4CC4)cc3)n2)n[nH]1 [Tozasertib] (partner 0.1 µM), 0.818; for `CCCCCCCCCCCC1=C(O)C(=O)C=C(O)C1=O` [Embelin] + Nc1ncn([C@H]2C[C@H](O)[C@@H](CO)O2)c(=O)n1 [Decitabine] (partner 2 µM), 0.506.
The same measure, in the same setting: with `CCCCCCCCCCCC1=C(O)C(=O)C=C(O)C1=O` [Embelin] + CC(=O)c1c(C)c2cnc(Nc3ccc(N4CCNCC4)cn3)nc2n(C2CCCC2)c1=O [Palbociclib] (partner 0.5 µM) the figure was 0.516.

Still in this experiment, the particulars now being: first compound 8 µM.
On to `CCCCCCCCCCCC1=C(O)C(=O)C=C(O)C1=O` [Embelin] + O=C(CCCCCCC(=O)Nc1ccccc1)NO [Vorinostat] (partner 1 µM), for which the relative viability was 0.754.
Same read-out and setting: with `CCCCCCCCCCCC1=C(O)C(=O)C=C(O)C1=O` [Embelin] + O=C(c1cc(Cc2n[nH]c(=O)c3ccccc23)ccc1F)N1CCN(C(=O)C2CC2)CC1 [Olaparib] (partner 8 µM) the figure was 0.592; with `CCCCCCCCCCCC1=C(O)C(=O)C=C(O)C1=O` [Embelin] + Cc1cc(Nc2cc(N3CCN(C)CC3)nc(Sc3ccc(NC(=O)C4CC4)cc3)n2)n[nH]1 [Tozasertib] (partner 0.1 µM), 0.731.
`CCCCCCCCCCCC1=C(O)C(=O)C=C(O)C1=O` [Embelin] + Nc1ncn([C@H]2C[C@H](O)[C@@H](CO)O2)c(=O)n1 [Decitabine] (partner 2 µM) came in with a relative viability of 0.456.
The compound `CCCCCCCCCCCC1=C(O)C(=O)C=C(O)C1=O` [Embelin] + CC(=O)c1c(C)c2cnc(Nc3ccc(N4CCNCC4)cn3)nc2n(C2CCCC2)c1=O [Palbociclib] (partner 0.5 µM) came in with a relative viability of 0.382.

In the next experiment the test system is NCI-H2347. The experiment is described as above. The conditions noted are these: first compound 0.08 µM. The procedure, abridged: as §1
Take `CCCCCCCCCCCC1=C(O)C(=O)C=C(O)C1=O` [Embelin] + O=C(CCCCCCC(=O)Nc1ccccc1)NO [Vorinostat] (partner 1 µM): the relative viability is 0.557.
Same read-out and setting: with `CCCCCCCCCCCC1=C(O)C(=O)C=C(O)C1=O` [Embelin] + O=C(c1cc(Cc2n[nH]c(=O)c3ccccc23)ccc1F)N1CCN(C(=O)C2CC2)CC1 [Olaparib] (partner 8 µM) the figure was 0.596.
On the same count and under the same terms, with `CCCCCCCCCCCC1=C(O)C(=O)C=C(O)C1=O` [Embelin] + Cc1cc(Nc2cc(N3CCN(C)CC3)nc(Sc3ccc(NC(=O)C4CC4)cc3)n2)n[nH]1 [Tozasertib] (partner 0.1 µM) the figure was 0.608; with `CCCCCCCCCCCC1=C(O)C(=O)C=C(O)C1=O` [Embelin] + Nc1ncn([C@H]2C[C@H](O)[C@@H](CO)O2)c(=O)n1 [Decitabine] (partner 2 µM), 0.618; with `CCCCCCCCCCCC1=C(O)C(=O)C=C(O)C1=O` [Embelin] + CC(=O)c1c(C)c2cnc(Nc3ccc(N4CCNCC4)cn3)nc2n(C2CCCC2)c1=O [Palbociclib] (partner 0.5 µM), 0.47.

Staying with this experiment, now noted: first compound 0.8 µM.
Consider `CCCCCCCCCCCC1=C(O)C(=O)C=C(O)C1=O` [Embelin] + O=C(CCCCCCC(=O)Nc1ccccc1)NO [Vorinostat] (partner 1 µM), for which the relative viability worked out at 0.628.
On the same count and under the same terms, with `CCCCCCCCCCCC1=C(O)C(=O)C=C(O)C1=O` [Embelin] + O=C(c1cc(Cc2n[nH]c(=O)c3ccccc23)ccc1F)N1CCN(C(=O)C2CC2)CC1 [Olaparib] (partner 8 µM) the figure was 0.641; with `CCCCCCCCCCCC1=C(O)C(=O)C=C(O)C1=O` [Embelin] + Cc1cc(Nc2cc(N3CCN(C)CC3)nc(Sc3ccc(NC(=O)C4CC4)cc3)n2)n[nH]1 [Tozasertib] (partner 0.1 µM), 0.465; with `CCCCCCCCCCCC1=C(O)C(=O)C=C(O)C1=O` [Embelin] + Nc1ncn([C@H]2C[C@H](O)[C@@H](CO)O2)c(=O)n1 [Decitabine] (partner 2 µM), 0.72.
Still for that read-out and setting: with `CCCCCCCCCCCC1=C(O)C(=O)C=C(O)C1=O` [Embelin] + CC(=O)c1c(C)c2cnc(Nc3ccc(N4CCNCC4)cn3)nc2n(C2CCCC2)c1=O [Palbociclib] (partner 0.5 µM) the figure was 0.387.
